Reference: ChEMBL document CHEMBL5346945, “Discovery and Optimization of the First ATP Competitive Type-III c-MET Inhibitor” (J Med Chem, 2023)

Legend:
[1] = Metabolic stability in human liver microsomes assessed as intrinsic clearance at 1 uM preincubated with NADPH for 8 mins followed by compound addition measured at 0.5 to 30 mins by LC-MS/MS analysis; format: ADME, Microsome; details: time 0.5-30 min, read-out: CLH
[2] = biological target: T1, Tyrosine-protein kinase receptor TYRO3 (Homo sapiens) (UniProt Q06418); details: dose 100.0 nM
T1 sequence (whole entry): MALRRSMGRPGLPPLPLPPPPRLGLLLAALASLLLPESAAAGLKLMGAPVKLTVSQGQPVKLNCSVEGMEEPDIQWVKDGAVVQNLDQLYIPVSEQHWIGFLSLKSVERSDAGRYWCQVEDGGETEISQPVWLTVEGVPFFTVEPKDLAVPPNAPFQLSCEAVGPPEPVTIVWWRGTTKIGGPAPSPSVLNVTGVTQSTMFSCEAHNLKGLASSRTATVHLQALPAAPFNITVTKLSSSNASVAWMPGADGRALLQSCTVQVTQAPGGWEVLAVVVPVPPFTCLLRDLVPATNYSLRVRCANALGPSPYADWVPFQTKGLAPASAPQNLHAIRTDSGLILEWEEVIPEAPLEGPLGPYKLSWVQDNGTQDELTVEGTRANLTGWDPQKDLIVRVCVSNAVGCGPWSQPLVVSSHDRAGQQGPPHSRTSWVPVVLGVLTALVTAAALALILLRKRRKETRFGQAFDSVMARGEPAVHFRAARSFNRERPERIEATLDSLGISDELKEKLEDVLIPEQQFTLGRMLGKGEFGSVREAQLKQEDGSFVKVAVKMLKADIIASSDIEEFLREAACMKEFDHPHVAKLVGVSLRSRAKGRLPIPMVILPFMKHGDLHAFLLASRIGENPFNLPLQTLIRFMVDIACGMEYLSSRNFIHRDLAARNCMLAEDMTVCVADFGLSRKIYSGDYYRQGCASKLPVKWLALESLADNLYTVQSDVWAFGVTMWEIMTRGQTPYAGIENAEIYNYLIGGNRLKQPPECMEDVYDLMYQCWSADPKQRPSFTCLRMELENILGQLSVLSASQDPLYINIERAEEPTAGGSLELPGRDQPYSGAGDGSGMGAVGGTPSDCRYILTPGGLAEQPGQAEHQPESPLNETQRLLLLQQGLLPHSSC
Description: Inhibition of TYRO3 (unknown origin) at 100 nM relative to control

[3] = biological target: Macrophage-stimulating protein receptor (Homo sapiens) (UniProt Q04912); details: dose 100.0 nM
Description: Inhibition of MST1R (unknown origin) at 100 nM relative to control

[4] = Lipophilicity, logD of compound in octanol and water at pH 7.4 measured by shake-flask method; format: physicochemical
[5] = biological target: T2, Hepatocyte growth factor receptor (Homo sapiens, UniProt P08581); details: dose 100.0 nM
Description: Inhibition of c-MET (unknown origin) at 100 nM relative to control

[6] = biological target: T2, Hepatocyte growth factor receptor; experiment: Inhibition of wild type c-MET (unknown origin) using ATP and poly(L-glutamic acid-L-tyrosine) as substrate incubated for 60 mins measured by ADP-Glo kinase assay
[7] = biological target: T3, Tyrosine-protein kinase Mer (Homo sapiens) (UniProt Q12866); details: dose 100.0 nM
T3 sequence (whole entry): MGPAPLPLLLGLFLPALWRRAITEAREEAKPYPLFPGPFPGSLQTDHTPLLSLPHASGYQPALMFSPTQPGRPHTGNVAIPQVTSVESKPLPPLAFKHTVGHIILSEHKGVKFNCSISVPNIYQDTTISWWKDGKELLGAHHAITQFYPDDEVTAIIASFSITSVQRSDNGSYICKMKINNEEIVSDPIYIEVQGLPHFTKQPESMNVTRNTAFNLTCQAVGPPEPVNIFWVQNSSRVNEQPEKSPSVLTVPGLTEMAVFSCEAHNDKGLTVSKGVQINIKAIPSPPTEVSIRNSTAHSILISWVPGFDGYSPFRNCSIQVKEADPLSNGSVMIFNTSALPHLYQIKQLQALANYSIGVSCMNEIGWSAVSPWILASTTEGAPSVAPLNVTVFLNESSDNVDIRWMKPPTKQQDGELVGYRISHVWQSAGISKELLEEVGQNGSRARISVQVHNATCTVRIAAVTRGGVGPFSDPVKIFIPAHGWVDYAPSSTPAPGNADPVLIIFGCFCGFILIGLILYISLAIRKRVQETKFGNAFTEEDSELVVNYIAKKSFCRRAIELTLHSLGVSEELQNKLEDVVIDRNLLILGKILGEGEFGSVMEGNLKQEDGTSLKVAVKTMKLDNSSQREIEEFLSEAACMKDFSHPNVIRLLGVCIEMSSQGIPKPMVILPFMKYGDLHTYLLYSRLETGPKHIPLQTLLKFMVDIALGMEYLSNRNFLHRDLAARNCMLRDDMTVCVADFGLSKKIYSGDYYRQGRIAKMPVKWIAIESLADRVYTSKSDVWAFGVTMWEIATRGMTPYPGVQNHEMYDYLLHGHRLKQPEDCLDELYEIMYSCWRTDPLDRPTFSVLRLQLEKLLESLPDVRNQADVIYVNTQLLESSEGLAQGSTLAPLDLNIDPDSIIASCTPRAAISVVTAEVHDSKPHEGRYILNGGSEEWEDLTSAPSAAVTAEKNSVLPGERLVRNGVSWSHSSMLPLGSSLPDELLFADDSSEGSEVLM
Description: Inhibition of MERTK (unknown origin) at 100 nM relative to control

[8] = Metabolic stability in Han Wistar rat hepatocytes assessed as intrinsic clearance measured per million cells at 1 uM measured at 0.5 to 2 hrs by LC-MS/MS analysis; format: ADME, cell-based, Hepatocyte; details: time 0.5-2 hrs, read-out: CLH

T2 sequence (P08581 whole entry): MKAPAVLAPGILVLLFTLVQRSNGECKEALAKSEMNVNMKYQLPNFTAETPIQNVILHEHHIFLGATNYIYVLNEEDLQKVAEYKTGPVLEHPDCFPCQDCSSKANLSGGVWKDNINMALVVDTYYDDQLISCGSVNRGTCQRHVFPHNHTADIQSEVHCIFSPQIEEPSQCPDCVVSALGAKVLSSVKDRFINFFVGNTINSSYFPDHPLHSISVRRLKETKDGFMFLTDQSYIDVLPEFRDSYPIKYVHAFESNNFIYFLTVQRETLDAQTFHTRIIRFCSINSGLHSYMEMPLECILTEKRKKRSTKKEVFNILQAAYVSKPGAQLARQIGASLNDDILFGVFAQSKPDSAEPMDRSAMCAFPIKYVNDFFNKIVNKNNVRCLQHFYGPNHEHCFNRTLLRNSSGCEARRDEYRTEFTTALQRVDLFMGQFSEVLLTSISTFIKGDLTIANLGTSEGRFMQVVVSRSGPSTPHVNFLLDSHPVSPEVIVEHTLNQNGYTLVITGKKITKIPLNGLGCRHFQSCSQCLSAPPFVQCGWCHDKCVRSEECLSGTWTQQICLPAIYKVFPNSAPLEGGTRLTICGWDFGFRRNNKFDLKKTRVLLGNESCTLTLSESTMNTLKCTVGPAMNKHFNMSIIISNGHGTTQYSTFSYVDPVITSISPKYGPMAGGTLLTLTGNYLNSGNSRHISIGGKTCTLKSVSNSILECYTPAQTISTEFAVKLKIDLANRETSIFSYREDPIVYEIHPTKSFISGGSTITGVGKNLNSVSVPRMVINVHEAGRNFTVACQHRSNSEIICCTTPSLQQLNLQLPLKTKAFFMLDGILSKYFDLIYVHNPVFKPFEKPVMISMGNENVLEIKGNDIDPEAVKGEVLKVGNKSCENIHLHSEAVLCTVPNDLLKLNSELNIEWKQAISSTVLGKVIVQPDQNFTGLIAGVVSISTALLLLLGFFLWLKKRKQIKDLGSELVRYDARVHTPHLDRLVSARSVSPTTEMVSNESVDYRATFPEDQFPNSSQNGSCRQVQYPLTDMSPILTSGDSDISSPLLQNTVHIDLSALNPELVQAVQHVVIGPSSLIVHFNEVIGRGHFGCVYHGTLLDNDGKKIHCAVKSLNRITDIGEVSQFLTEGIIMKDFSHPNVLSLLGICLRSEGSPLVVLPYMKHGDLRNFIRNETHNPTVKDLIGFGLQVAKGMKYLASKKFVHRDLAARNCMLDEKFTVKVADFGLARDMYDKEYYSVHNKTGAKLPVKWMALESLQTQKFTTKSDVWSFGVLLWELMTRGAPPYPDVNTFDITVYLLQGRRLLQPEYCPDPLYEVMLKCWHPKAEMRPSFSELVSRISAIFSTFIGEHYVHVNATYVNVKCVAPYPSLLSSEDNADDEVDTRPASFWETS
Chain of Macrophage-stimulating protein receptor (Homo sapiens) (Q04912 25-304 limits assumed): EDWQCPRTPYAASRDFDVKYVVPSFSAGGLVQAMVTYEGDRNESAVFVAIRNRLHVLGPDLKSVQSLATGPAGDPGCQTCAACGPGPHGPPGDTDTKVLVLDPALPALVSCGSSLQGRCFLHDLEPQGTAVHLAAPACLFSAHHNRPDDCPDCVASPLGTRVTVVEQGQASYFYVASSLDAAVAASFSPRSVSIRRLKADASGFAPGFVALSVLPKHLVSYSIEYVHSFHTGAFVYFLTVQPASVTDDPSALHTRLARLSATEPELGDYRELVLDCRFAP
Chain of Macrophage-stimulating protein receptor (Homo sapiens) (Q04912 310-1400 limits assumed): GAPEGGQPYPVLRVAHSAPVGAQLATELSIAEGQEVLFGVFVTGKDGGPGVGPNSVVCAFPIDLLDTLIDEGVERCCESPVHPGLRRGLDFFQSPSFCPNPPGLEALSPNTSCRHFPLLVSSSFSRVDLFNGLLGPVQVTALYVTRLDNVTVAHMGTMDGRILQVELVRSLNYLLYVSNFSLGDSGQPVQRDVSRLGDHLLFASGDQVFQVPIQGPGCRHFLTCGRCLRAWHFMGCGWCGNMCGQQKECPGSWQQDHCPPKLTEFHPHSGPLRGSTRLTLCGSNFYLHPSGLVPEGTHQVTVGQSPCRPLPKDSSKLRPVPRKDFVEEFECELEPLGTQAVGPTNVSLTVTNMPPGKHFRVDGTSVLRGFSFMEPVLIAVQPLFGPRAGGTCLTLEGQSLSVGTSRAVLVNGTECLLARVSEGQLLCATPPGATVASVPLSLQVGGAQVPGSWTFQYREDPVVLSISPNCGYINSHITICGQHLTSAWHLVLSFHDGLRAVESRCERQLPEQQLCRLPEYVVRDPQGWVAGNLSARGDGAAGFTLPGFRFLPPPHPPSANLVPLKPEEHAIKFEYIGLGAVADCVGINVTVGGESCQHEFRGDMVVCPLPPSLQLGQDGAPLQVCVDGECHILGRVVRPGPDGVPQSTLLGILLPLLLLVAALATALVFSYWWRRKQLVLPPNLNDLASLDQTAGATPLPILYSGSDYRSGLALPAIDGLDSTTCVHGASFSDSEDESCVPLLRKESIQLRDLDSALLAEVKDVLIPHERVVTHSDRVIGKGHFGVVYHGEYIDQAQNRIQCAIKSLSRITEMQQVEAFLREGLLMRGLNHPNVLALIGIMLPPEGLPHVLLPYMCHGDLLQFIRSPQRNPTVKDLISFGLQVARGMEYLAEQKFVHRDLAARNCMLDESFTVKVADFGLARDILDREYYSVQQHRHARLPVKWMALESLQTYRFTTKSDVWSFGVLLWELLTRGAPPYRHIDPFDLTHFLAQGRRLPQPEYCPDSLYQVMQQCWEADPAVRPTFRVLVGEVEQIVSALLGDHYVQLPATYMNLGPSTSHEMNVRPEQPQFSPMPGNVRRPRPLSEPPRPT

With `C#Cc1n[nH]c2c(-c3cn([C@@H](C)c4ccccn4)c(=O)[nH]c3=O)cc(F)cc12` the microsomal CLint at 1 µM [1] was 18 µL/min/mg, the inhibition [2] was less than 50% and the inhibition [3] was less than 50%. For the same molecule, the logD [4] was 2.7, the inhibition [5] was 80% and the IC50 [6] was 16 nM. For the same molecule, the inhibition [7] was 75.3% and the hepatocyte CLint at 1 µM [8] was 6.07 µL/min/1e6 cells.
